Test system: patients with progressive multiple sclerosis (PPMS or non-active SPMS)
Test: Study AB07002: randomized, double-blind, placebo-controlled phase 3 study, overall EDSS change from baseline
Type: in vivo, human
Set-up: key to LSM EDSS, MAS (overall EDSS change from baseline): LS mean EDSS change from baseline; positive value = worsening
Conditions: 4.5 mg/kg/day oral; for ΔEDSS (between group difference, treatment-effect vs placebo) / LSM EDSS, MAS (overall EDSS change from baseline) / R % (relative difference in ΔEDSS with respect to full analysis dataset): 96 weeks; for treatment-effect with respect to placebo (EDSS): non-active SPMS
Description: An international, multicenter, randomized, double-blind, placebo-controlled phase 3 study was conducted with the objective to evaluate oral masitinib at a dose of 4.5 mg/kg/day as a treatment for progressive multiple sclerosis (progressive MS), as defined hereinabove. […] Eligible patients were treated for 96 weeks with masitinib at a dose of 4.5 mg/kg/day (mg per kilo body weight per day) or with placebo. Primary endpoint was overall EDSS change from baseline using a repeated analysis of covariance model (i.e., ANCOVA GEE model on all measurements from week 12 (W12) to week 96 (W96)). Results are expressed as least-squares means difference, illustrating the progression of EDSS score, that is to say the change over time in the EDSS score or in other words the difference between the EDSS score at baseline and the EDSS score after treatment with masitinib or with placebo (a positive value indicates a worsening of the patient). Treatment-effect is reported as between-group difference (ΔLSM, negative value indicates a beneficial effect of treatment with masitinib as compared to treatment with placebo). […] Patients suffering from a disease other than MS that would better explain their neurological clinical signs and symptoms and/or lesions observed with magnetic resonance imaging (“MRI lesions”) were excluded. Subpopulation analyses of primary endpoint data from study AB07002 assessed the impact of the clinical markers ‘time from onset’ with respect to baseline (i.e., date of treatment initiation), derived from the estimated date of first clinical MS symptom(s), or ‘time from diagnosis’ with respect to baseline (i.e., date of treatment initiation), on masitinib efficacy in patients with progressive MS (see Example 3). ‘Time from onset’ is derived from the date (year/month/day, year/month, or year) of first clinical symptom(s) with duration calculated from date of treatment initiation. The date of first symptom(s) is typically determined retrospectively from medical history, for example from medical records and patient/caregiver historical recall of MS related symptoms following a clinically definite diagnosis. Imputation of missing data can be handled using various methods, one example of which is the following approach: if the information regarding day is missing, the day is considered to be the last day of the month; if the day and month are missing, the day is considered to be the last day of June. ‘Time from diagnosis’ of progressive MS, is ideally based on a clinically definite diagnosis of progressive MS as determined by a MS specialist neurologist. In practice it is derived from the date (year/month/day, year/month, or year) of first clinically definite diagnosis of progressive MS, i.e., PPMS or non-active SPMS, with duration calculated from date of treatment initiation. At the time of MS diagnosis, a provisional disease course should be specified (relapsing-remitting, primary progressive, or secondary progressive) and whether the course is active or not (non-active) and progressive or not based on the previous year's history. The phenotype should be periodically re-evaluated based on accumulated information. Comparison of subpopulation analyses with respect to the corresponding full analysis dataset (see Table 4) is reported as relative difference in ΔEDSS (R %). A large positive R % value indicates a subpopulation that receives greater benefit from masitinib treatment, while a negative R % value indicates a diminished treatment-effect or lack of discernable treatment-effect in the subpopulation.

[1] = nSPMS, T(diag) > 2 Y and T(onset) > 5 Y

Cc1ccc(NC(=O)c2ccc(CN3CCN(C)CC3)cc2)cc1Nc1nc(-c2cccnc2)cs1 [masitinib, 4-(4-methylpiperazin-1-ylmethyl)-N-[4-methyl-3-(4-pyridin-3ylthiazol-2-ylamino)phenyl]benzamide]
ΔEDSS (between group difference, treatment-effect vs placebo) (Progressive MS, T(diag) ≤ 1 Y): 0.261 | LSM EDSS, MAS (overall EDSS change from baseline) (Progressive MS, T(diag) ≤ 2 Y): 0.163 | LSM EDSS, MAS (overall EDSS change from baseline) (Progressive MS, T(diag) ≤ 3 Y): 0.056 | ΔEDSS (between group difference, treatment-effect vs placebo) (Progressive MS, T(diag) ≤ 3 Y): 0.053 | LSM EDSS, MAS (overall EDSS change from baseline) (Progressive MS, T(diag) ≤ 4 Y): 0.075 | ΔEDSS (between group difference, treatment-effect vs placebo) (Progressive MS, T(diag) ≤ 4 Y): −0.028 | LSM EDSS, MAS (overall EDSS change from baseline) (Progressive MS, T(onset) > 1 Y): 0.012 | R % (relative difference in ΔEDSS with respect to full analysis dataset) (Progressive MS, T(onset) > 1 Y): −5% | ΔEDSS (between group difference, treatment-effect vs placebo) (Progressive MS, T(onset) > 1 Y): −0.094 | LSM EDSS, MAS (overall EDSS change from baseline) (Progressive MS, T(onset) > 2 Y): 0.004 | R % (relative difference in ΔEDSS with respect to full analysis dataset) (Progressive MS, T(onset) > 2 Y): 1% | ΔEDSS (between group difference, treatment-effect vs placebo) (Progressive MS, T(onset) > 2 Y): −0.100 | LSM EDSS, MAS (overall EDSS change from baseline) (Progressive MS, T(onset) > 3 Y): −0.010 | R % (relative difference in ΔEDSS with respect to full analysis dataset) (Progressive MS, T(onset) > 3 Y): 20% | ΔEDSS (between group difference, treatment-effect vs placebo) (Progressive MS, T(onset) > 3 Y): −0.119 | LSM EDSS, MAS (overall EDSS change from baseline) (Progressive MS, T(onset) > 4 Y): −0.027 | R % (relative difference in ΔEDSS with respect to full analysis dataset) (Progressive MS, T(onset) > 4 Y): 29% | ΔEDSS (between group difference, treatment-effect vs placebo) (Progressive MS, T(onset) > 4 Y): −0.128 | LSM EDSS, MAS (overall EDSS change from baseline) (Progressive MS, T(onset) > 5 Y): −0.031 | ΔEDSS (between group difference, treatment-effect vs placebo) (Progressive MS, T(onset) > 5 Y): −0.156 | R % (relative difference in ΔEDSS with respect to full analysis dataset) (Progressive MS, T(onset) > 5 Y, 4.5 mg/kg/day): 58% | LSM EDSS, MAS (overall EDSS change from baseline) (Progressive MS, T(onset) ≤ 3 Y): 0.106 | ΔEDSS (between group difference, treatment-effect vs placebo) (Progressive MS, T(onset) ≤ 3 Y): 0.346 | LSM EDSS, MAS (overall EDSS change from baseline) (Progressive MS, T(onset) ≤ 4 Y): −0.000 | ΔEDSS (between group difference, treatment-effect vs placebo) (Progressive MS, T(onset) ≤ 4 Y): 0.146 | LSM EDSS, MAS (overall EDSS change from baseline) (Progressive MS, T(onset) ≤ 5 Y): 0.259 | LSM EDSS, MAS (overall EDSS change from baseline) (Progressive MS, complement T(diag) ≤ 2 Y or T(onset) ≤ 5 Y): 0.173 | LSM EDSS, MAS (overall EDSS change from baseline) (Progressive MS, full analysis dataset): 0.008 | ΔEDSS (between group difference, treatment-effect vs placebo) (Progressive MS, full analysis dataset, 4.5 mg/kg/day): −0.099 | ΔEDSS (between group difference, treatment-effect vs placebo) (Progressive MS, full analysis dataset, listed as Masitinib, 4.5 mg/kg/day): significant slowing of EDSS progression | LSM EDSS, MAS (overall EDSS change from baseline) (nSPMS, T(diag) > 1 Y): −0.039 | R % (relative difference in ΔEDSS with respect to full analysis dataset) (nSPMS, T(diag) > 1 Y): 6% | ΔEDSS (between group difference, treatment-effect vs placebo) (nSPMS, T(diag) > 1 Y): −0.101 | LSM EDSS, MAS (overall EDSS change from baseline) [1]: −0.051 | ΔEDSS (between group difference, treatment-effect vs placebo) [1]: −0.118 | R % (relative difference in ΔEDSS with respect to full analysis dataset) (nSPMS, T(diag) > 2 Y and T(onset) > 5 Y, 4.5 mg/kg/day): 24% | LSM EDSS, MAS (overall EDSS change from baseline) (nSPMS, T(diag) > 2 Y): −0.039 | R % (relative difference in ΔEDSS with respect to full analysis dataset) (nSPMS, T(diag) > 2 Y): 7% | LSM EDSS, MAS (overall EDSS change from baseline) (nSPMS, T(diag) > 3 Y): −0.045 | R % (relative difference in ΔEDSS with respect to full analysis dataset) (nSPMS, T(diag) > 3 Y): 13% | LSM EDSS, MAS (overall EDSS change from baseline) (nSPMS, T(diag) > 4 Y): −0.050 | R % (relative difference in ΔEDSS with respect to full analysis dataset) (nSPMS, T(diag) > 4 Y): 29% | ΔEDSS (between group difference, treatment-effect vs placebo) (nSPMS, T(diag) > 4 Y): −0.123 | LSM EDSS, MAS (overall EDSS change from baseline) (nSPMS, T(diag) ≤ 4 Y): 0.036 | ΔEDSS (between group difference, treatment-effect vs placebo) (nSPMS, T(diag) ≤ 4 Y): −0.004 | LSM EDSS, MAS (overall EDSS change from baseline) (nSPMS, T(onset) > 1 Y): −0.035 | R % (relative difference in ΔEDSS with respect to full analysis dataset) (nSPMS, T(onset) > 1 Y): 0% | ΔEDSS (between group difference, treatment-effect vs placebo) (nSPMS, T(onset) > 1 Y): −0.095 | LSM EDSS, MAS (overall EDSS change from baseline) (nSPMS, T(onset) > 2 Y): −0.035 | R % (relative difference in ΔEDSS with respect to full analysis dataset) (nSPMS, T(onset) > 2 Y): 0% | ΔEDSS (between group difference, treatment-effect vs placebo) (nSPMS, T(onset) > 2 Y): −0.095 | LSM EDSS, MAS (overall EDSS change from baseline) (nSPMS, T(onset) > 3 Y): −0.037 | R % (relative difference in ΔEDSS with respect to full analysis dataset) (nSPMS, T(onset) > 3 Y): 7% | ΔEDSS (between group difference, treatment-effect vs placebo) (nSPMS, T(onset) > 3 Y): −0.102 | LSM EDSS, MAS (overall EDSS change from baseline) (nSPMS, T(onset) > 4 Y): −0.040 | R % (relative difference in ΔEDSS with respect to full analysis dataset) (nSPMS, T(onset) > 4 Y): 16% | ΔEDSS (between group difference, treatment-effect vs placebo) (nSPMS, T(onset) > 4 Y): −0.110 | LSM EDSS, MAS (overall EDSS change from baseline) (nSPMS, T(onset) > 5 Y): −0.050 | R % (relative difference in ΔEDSS with respect to full analysis dataset) (nSPMS, T(onset) > 5 Y): 23% | LSM EDSS, MAS (overall EDSS change from baseline) (nSPMS, full analysis dataset): −0.035 | ΔEDSS (between group difference, treatment-effect vs placebo) (nSPMS, full analysis dataset, 4.5 mg/kg/day): −0.095 | ΔEDSS (between group difference, treatment-effect vs placebo) (nSPMS, full analysis dataset, listed as Masitinib, 4.5 mg/kg/day): significant slowing of EDSS progression | treatment-effect with respect to placebo (EDSS) (time from diagnosis to treatment initiation of no more than 2 year): no discernable treatment-effect | treatment-effect with respect to placebo (EDSS) (time from onset to treatment initiation of no more than 5 year): no discernable treatment-effect
